Columns and labels:
cRel + ER alpha = assay: Transrepression of c-Rel induced reporters, U-2 OS co-transfected with ERα; format: cell-based, human
Experimental: Next was determined whether transrepression by ER is limited to particular NF-κB types, such as c-Rel or RelA, by overexpression of these NF-κB proteins in U-2 OS cells (Table 2). Again, the promoter-reporter constructs for the E-selectin, ICAM and VCAM genes were used in these experiments. Significant activation of these reporters by overexpression of c-Rel was observed. This activation was strongly and reproducibly transrepressed by both ERα and ERβ (Table 2).
Table 2. Estrogen-dependent transrepression of the promoters from E-selectin, VCAM and ICAM and a synthetic NF-κB responsive reporter, measured as the amount of luciferase activity. Transient (co-)transfections of ERα (or ERβ) and reporter were performed in U-2 OS cells. Reporter activity was induced by cellular exposure to Il-1β or by co-transfection of the NF-κB genes c-Rel or RelA. […] For detailed information on the composition of the reporters used, see appendix 1. The hyphen (-) in the table indicates the test with cells without transfected cDNA and no additives in medium; n.d. means: not determined.
(§1) For transient transfections, cells were seeded in 6-well plates (2.10^5 cells/well). After two or three days the cells were transfected with reporter, expression vectors and β-galactosidase control vector. Two different experimental settings were used. For testing transrepression of IL-1β induced promoter activity, cells were transfected with 1 μg reporter construct, 1 μg expression vector (containing either ERα, ERβ or GR), and 0.25 μg of β-galactosidase control plasmid. For testing transrepression in combination with c-Rel or ReLA overexpression, cells were transfected with 1 μg reporter construct, 1 μg expression vector (containing either ERα, ERβ or GR) and 0.1 or 1.0 μg expression vector containing c-Rel or RelA and 0.25 μg of β-galactosidase control vector. Equivalent amounts of DNA were obtained by adding the appropriate expression vector that lacks an insert. Transient transfection was performed using lipofectin reagent (Life Technologies). […] The transfected cells were incubated overnight with test compounds prior to cell lysis. Measurement of luciferase and P-galactosidase activity were performed using respectively the luciferase assay system (Promega) and Galacto-light plus (Tropix) according to the manufacturers' protocols and measured on the Victor 1420 multilabel counter, Wallac. Detection of β-galactosidase activity was used as a control for transfection efficiency.

ERα and c-Rel = assay: NF-κB-responsive reporters in COS cells transfected with ERα and c-Rel; format: cell-based, human; details: COS cells (B), ERα + cRel transfected
Description: This example describes an assay, based on the E-selectin or VCAM promoter in combination with ERα in the T24/ECV cell line. Note that for the ER/NF-κB transrepression assay the ECV304 cell line was used, which was believed to be the only endothelial cell line available that was suitable for producing stable ERα expressing clones. At a later stage ATCC reported that the ECV304 cells were no endothelial cells but, instead, were T24 bladder carcinoma cells. In order to enhance the cytokine induction and amount of repression by estrogens, multiple copies of NF-κB responsive regions of the E-Selectin and VCAM promoters were used to construct new reporters named ELAM1a, ELAM2, ELAM-HMG, VCAM1-2, VCAM2, and VCAM3 (for reporter details see appendix 1).
ECV304-ERα cells stably express ERα and endogenous c-Rel, whereas COS cells were transiently transfected with ERα, and, where indicated, c-Rel. Both cell types were co-transfected with the indicated E-selectin (ELAM) or VCAM promoter derived reporters.
Human osteosarcoma U-2 OS (HTB-96), monkey kidney COS-1 (CRL-1650) and human ECV304 (CRL-1998) cells have been obtained from ATCC (American Type Culture collection). ECV304 cells were sold by ATCC as human endothelial cells, however at a later stage ATCC informed us that this cell line was in fact the human bladder epithelial carcinoma cell line T24. Therefore, these cells are called T24/ECV in this report. ECV304/T24(-ERα), U-2 OS and COS-7 cells were grown in a 1:1 mixture of phenol red free Dulbecco's modified medium (DMEM) and Ham's F12 medium (=M505), supplemented with 10% fetal calf serum (FCS). Experiments were performed in M505+10% FCTS (fetal calf serum treated with dextran-coated charcoal to deplete serum from steroid activity).
The six NF-κB responsive reporters pHGL3-ELAM 1a, pHGL3-ELAM 2, pHGL3-ELAM HMG, pHGL3-VCAM 1-2, pHGL3-VCAM 2 and pHGL3-VCAM 3 (plasmid nr. 1921-1926 respectively) were constructed by ligating annealed primers in the Kpn I and Sac I sites of pHGL3-TATA. The primers were based on the NF-κB-RE sequences in the ELAM and the VCAM promoter (see Appendix 1). Several copies of the NF-κB-RE's were cloned in order the gain a higher absolute luciferase signal. The ELAM HMG construct contains a double repeat, while the other constructs contain three NF-κB -RE's. For primer and reporter sequences, see appendix 1.
as §1, with “Wallac.” for “Wallac. Detection of β-galactosidase activity was used as a control for transfection efficiency.”

## C[C@]12CC[C@@H]3c4ccc(O)cc4CC[C@H]3[C@@H]1CC[C@@H]2O [Org E2, 17β-estradiol]
cRel + ER alpha
  luciferase activity, 3*NFkB-reporter: 5140
  luciferase activity, ELAM+ reporter: 3256
  luciferase activity, ELAM− reporter: 569
  luciferase activity, ICAM reporter: 3514
  luciferase activity, VCAM reporter: 259
ERα and c-Rel
  luciferase activity, ELAM1a reporter: 7390 cps
  luciferase activity, ELAM2 reporter: 6223 cps
  luciferase activity, ELAM-HMG reporter: 61571 cps
  luciferase activity, ELAM− reporter: 90035 cps
  luciferase activity, VCAM1-2 reporter: 9107 cps
  luciferase activity, VCAM2 reporter: 4783 cps
  luciferase activity, VCAM3 reporter: 10781 cps
  luciferase activity, VCAM reporter: 51283 cps
